# Assay results from patent US6251893A, “Bicyclic piperidine and piperazine compounds having 5-HT6 receptor affinity” (NPS Allelix Corp., priority 1998, dated 2001).
# Key:
# 5-HT2A receptor = 5-HT2A receptor (Homo sapiens, UniProt P28223); assay: Binding to 5-HT2A receptor (selectivity); set-up: dose or concentration left out as unconfirmed; conditions: selectivity versus 5-HT6; read-out: percent inhibition for the 5-HT2A receptor
# 5HT2C receptor = target: T1, 5HT2C receptor (Homo sapiens, UniProt P28335); assay: Binding to 5HT2C receptor (selectivity); conditions: selectivity versus 5-HT6; read-out: percent inhibition for the 5HT2C receptor
# T1 sequence (P28335 33-458): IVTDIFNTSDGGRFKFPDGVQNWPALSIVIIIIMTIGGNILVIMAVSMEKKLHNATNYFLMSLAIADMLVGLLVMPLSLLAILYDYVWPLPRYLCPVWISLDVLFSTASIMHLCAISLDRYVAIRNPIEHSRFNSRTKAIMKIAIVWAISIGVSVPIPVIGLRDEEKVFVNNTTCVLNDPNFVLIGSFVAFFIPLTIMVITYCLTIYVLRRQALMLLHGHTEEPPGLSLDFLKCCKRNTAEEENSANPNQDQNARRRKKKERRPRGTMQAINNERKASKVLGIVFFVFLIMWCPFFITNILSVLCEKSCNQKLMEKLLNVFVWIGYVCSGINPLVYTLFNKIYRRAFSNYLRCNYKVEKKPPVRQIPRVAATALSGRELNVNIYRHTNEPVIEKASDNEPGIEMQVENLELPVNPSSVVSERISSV
# 5-HT7 receptor = 5-HT7 receptor (Homo sapiens, UniProt P34969); assay: Binding to 5-HT7 receptor (selectivity); set-up: dose or concentration left out as unconfirmed; conditions: selectivity versus 5-HT6; read-out: percent inhibition for the 5-HT7 receptor
# human 5HT6 receptor = human 5HT6 receptor (Homo sapiens, UniProt P50406); assay: Binding affinity for the 5-HT6 receptor (3H-LSD displacement); set-up: expressed in transfected cells; conditions: 100 nM test compound; 3H-LSD (2 nM); 60 minute incubation at 37° C; read-out: percent inhibition of radioligand binding for the 5-HT6 receptor
# Experimental: Binding Affinity for the 5-HT6 Receptor
# The assay protocol generally entailed the incubation of membranes prepared from cells expressing the 5-HT6 receptor with ^3 H-LSD (2 nM). Increasing levels of the test compound were incubated with the radioligand and the membrane homogenates prepared from the recombinant cells. After a 60 minute incubation at 37° C., the incubation was terminated by vacuum filtration. The filters were washed with buffer and the filters were counted for radioactivity using liquid scintillation spectrometry. […] Concentrations ranging from 10^-11 M to 10^-5 M of the test compound were evaluated. […] Affinity for the 5-HT6 receptor is expressed as the amount (in percent) of binding of the radioligand that is inhibited in the presence of 100 nM of test compound. A greater percent inhibition indicates greater affinity for the 5-HT6 receptor.
# human 5HT6 receptor, sequence (P50406 whole entry): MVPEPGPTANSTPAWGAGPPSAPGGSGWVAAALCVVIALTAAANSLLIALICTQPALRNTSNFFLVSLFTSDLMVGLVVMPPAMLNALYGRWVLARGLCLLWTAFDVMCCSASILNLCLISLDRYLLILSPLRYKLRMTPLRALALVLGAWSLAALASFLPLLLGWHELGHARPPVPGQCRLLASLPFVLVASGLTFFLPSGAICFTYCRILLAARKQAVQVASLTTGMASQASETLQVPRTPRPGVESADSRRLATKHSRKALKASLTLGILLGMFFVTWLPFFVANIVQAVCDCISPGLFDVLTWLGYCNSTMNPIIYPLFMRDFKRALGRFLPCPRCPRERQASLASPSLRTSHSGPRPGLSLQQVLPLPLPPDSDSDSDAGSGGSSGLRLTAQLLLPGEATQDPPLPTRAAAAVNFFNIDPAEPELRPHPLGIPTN
# 5-HT7 receptor, sequence (P34969 whole entry): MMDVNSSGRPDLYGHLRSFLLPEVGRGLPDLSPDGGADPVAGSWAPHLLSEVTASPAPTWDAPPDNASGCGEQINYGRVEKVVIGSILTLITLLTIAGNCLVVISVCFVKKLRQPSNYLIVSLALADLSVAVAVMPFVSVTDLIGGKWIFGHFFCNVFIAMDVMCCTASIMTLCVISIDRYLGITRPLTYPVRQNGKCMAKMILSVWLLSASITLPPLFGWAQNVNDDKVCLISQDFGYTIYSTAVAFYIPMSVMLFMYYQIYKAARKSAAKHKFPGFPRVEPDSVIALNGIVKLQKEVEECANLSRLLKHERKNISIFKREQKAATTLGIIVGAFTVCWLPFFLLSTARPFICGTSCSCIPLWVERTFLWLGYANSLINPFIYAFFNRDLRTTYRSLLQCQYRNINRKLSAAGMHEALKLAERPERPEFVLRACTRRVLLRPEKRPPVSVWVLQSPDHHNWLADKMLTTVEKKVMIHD
# 5-HT2A receptor, sequence (P28223 whole entry): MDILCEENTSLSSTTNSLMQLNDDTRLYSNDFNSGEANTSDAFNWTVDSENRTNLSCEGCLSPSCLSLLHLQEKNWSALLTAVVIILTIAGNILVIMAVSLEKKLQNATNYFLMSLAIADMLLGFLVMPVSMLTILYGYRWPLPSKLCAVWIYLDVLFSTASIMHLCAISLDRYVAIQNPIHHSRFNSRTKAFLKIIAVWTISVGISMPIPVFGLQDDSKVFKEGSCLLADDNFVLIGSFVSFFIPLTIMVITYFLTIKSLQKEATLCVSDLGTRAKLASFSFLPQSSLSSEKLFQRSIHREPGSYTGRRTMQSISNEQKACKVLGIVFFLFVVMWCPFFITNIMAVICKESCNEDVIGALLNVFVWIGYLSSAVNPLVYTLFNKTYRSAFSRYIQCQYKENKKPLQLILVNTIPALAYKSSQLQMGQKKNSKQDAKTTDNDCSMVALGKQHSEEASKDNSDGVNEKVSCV
SMILES,inhibition (5-HT2A receptor) [%],inhibition at 0.1 µM (5HT2C receptor) [%],inhibition (5-HT7 receptor) [%],inhibition at 0.1 µM (human 5HT6 receptor) [%]
"O=S(=O)(c1ccc2ccccc2c1)n1cc(N2CCN3CCCC3C2)c2ccccc21 (racemic) [Example 6a, 3-[(6-R,S)-1,4-Diaza[4.3. 0]bicyclonon-4-yl]-1-(2-naphthalenesulfonyl)indole]",< 20,< 20,< 20,> 80
"O=S(=O)(c1ccc(F)cc1)n1cc(C2=CCN3CCCC3C2)c2cc(F)ccc21 (racemic) [Example 6aa, 5-Fluoro-1-(4-fluorophenylsulfonyl)-3-[(8a-R,S)-1,2,3,5,8,8a-hexahydro-7-indolizinyl]indole]",< 20,< 20,< 20,> 80
"O=S(=O)(c1ccc(Br)cc1)n1cc(C2=CCN3CCCC3C2)c2cc(F)ccc21 (racemic) [Example 6bb, 1-(4-Bromophenylsulfonyl)-5-fluoro-3-[(8a-R,S)-1,2,3,5,8,8a-hexahydro-7-indolizinyl]indole]",< 20,< 20,< 20,> 80
"O=S(=O)(c1ccc(Br)cc1)n1cc(N2CCN3CCCC3C2)c2ccccc21 (racemic) [Example 6c, 1-(4-Bromophenylsulfonyl)-3-[(6-R,S)-1,4-diaza[4.3. 0]bicyclonon-4-yl]indole]",< 20,< 20,< 20,> 80
"O=S(=O)(c1ccccc1Br)n1cc(C2=CCN3CCCC3C2)c2cc(F)ccc21 (racemic) [Example 6cc, 1-(2-Bromophenylsulfonyl)-5-fluoro-3-[(8a-R,S)-1 ,2,3,5,8,8a-hexahydro-7-indolizinyl]indole]",< 20,< 20,< 20,> 80
"CC(C)(C)c1ccc(S(=O)(=O)n2cc(N3CCN4CCCC4C3)c3ccccc32)cc1 (racemic) [Example 6d, 1-(4-t-Butylphenylsulfonyl)-3-[(6-R,S)-1,4-diaza[4.3. 0]bicyclonon-4-yl]indole]",< 20,< 20,< 20,> 80
"Cc1ccc(S(=O)(=O)n2cc(C3=CCN4CCCC4C3)c3cc(F)ccc32)cc1 (racemic) [Example 6dd, 5-Fluoro-3-[(8a-R,S)-1,2,3,5,8,8a-hexahydro-7-indolizinyl]-1-(4-methylphenylsulfonyl)indole]",< 20,< 20,< 20,> 80
"O=S(=O)(c1ccc(Cl)cc1)n1cc(N2CCN3CCCC3C2)c2ccccc21 (racemic) [Example 6e, 1-(4-Chlorophenylsulfonyl)-3-[(6-R,S)-1,4-diaza[4.3. 0]bicyclonon-4-yl]indole]",–,–,–,> 80
"COc1ccc(S(=O)(=O)n2cc(C3=CCN4CCCC4C3)c3cc(F)ccc32)cc1 (racemic) [Example 6ee, 5-Fluoro-3-[(8a-R,S)-1,2,3,5,8,8a-hexahydro-7-indolizinyl]-1-(4-methoxyphenylsulfonyl)indole]",< 20,< 20,< 20,> 80
"O=S(=O)(c1ccc(F)cc1)n1cc(N2CCN3CCCC3C2)c2ccccc21 (racemic) [Example 6f, 3-[(6-R,S)-1,4-Diaza[4.3. 0]bicyclonon-4-yl]-1-(4-fluorophenylsulfonyl)indole]",–,–,–,> 80
"COc1ccc(S(=O)(=O)n2cc(N3CCN4CCCC4C3)c3ccccc32)cc1 (racemic) [Example 6g, 3-[(6-R,S)-1,4-Diaza[4.3. 0]bicyclonon-4-yl]-1-(4-methoxyphenylsulfonyl)indole]",< 20,< 20,< 20,> 80
"CC(C)(C)c1ccc(S(=O)(=O)n2cc(C3=CCN4CCCC4C3)c3cc(F)ccc32)cc1 (racemic) [Example 6gg, 1-(4-t-Butylphenylsulfonyl)-5-fluoro-3-[(8a-R,S)-1,2,3,5,8,8a-hexahydro-7-indolizinyl]indole]",< 20,< 20,< 20,> 80
"O=S(=O)(c1cc(Cl)ccc1Cl)n1cc(N2CCN3CCCC3C2)c2ccccc21 (racemic) [Example 6h, 3-[(6-R,S)-1,4-Diaza[4.3. 0]bicyclonon-4-yl]-1-(2,5-dichlorophenylsulfonyl)indole]",–,–,–,> 80
"O=S(=O)(c1cc(Cl)ccc1Cl)n1cc(C2=CCN3CCCC3C2)c2cc(F)ccc21 (racemic) [Example 6hh, 1-(2,5-Dichlorophenylsulfonyl)-5-fluoro-3-[(8a-R,S)-1,2,3,5,8,8a-hexahydro-7-indolizinyl]indole]",< 20,< 20,< 20,> 80
"O=S(=O)(c1ccccc1Br)n1cc(N2CCN3CCCC3C2)c2ccccc21 (racemic) [Example 6i, 1-(2-Bromophenylsulfonyl)-3-[(6-R,S)-1,4-diaza[4.3. 0]bicyclonon-4-yl]indole]",–,–,–,> 80
"O=S(=O)(c1ccc(Cl)cc1)n1cc(C2=CCN3CCCC3C2)c2cc(F)ccc21 (racemic) [Example 6ii, 1-(4-Chlorophenylsulfonyl)-5-fluoro-3-[(8a-R,S)-1,2,3,5,8,8a-hexahydro-7-indolizinyl]indole]",< 20,< 20,< 20,> 80
"O=S(=O)(c1ccccc1)n1cc(C2=CCN3CCCC3C2)c2cc(F)cc(F)c21 (racemic) [Example 6jj, 5,7-Difluoro-3-[(8a-R,S)-1,2,3,5,8,8a-hexahydro-7-indolizinyl]-1-phenylsulfonylindole]",< 20,< 20,< 20,> 80
"Cc1ccc(S(=O)(=O)n2cc(N3CCN4CCCC4C3)c3ccccc32)cc1 (racemic) [Example 6k, 3-[(6-R,S)-1,4-Diaza[4.3. 0]bicyclonon-4-yl]-1-(4-methylphenylsulfonyl)indole]",–,–,–,> 80
"Cc1ccc(S(=O)(=O)n2cc(N3CCN4CCCCC4C3)c3ccccc32)cc1 (racemic) [Example 6v, 3-[(6-R,S)-1,4-Diaza[4.4. 0]bicyclodecan-4-yl]-1-(4-methylphenylsulfonyl)indole]",–,–,–,> 80
"Cc1ccc(S(=O)(=O)n2nc(N3CCN4CCCC4C3)c3ccccc32)cc1 (racemic) [Example 7a, 3-[(6-R,S)-1,4-Diaza[4.3. 0]bicyclonon-4-yl]-1-(4-methylphenylsulfonyl)indazole]",–,–,–,> 80
"Cc1ccc(S(=O)(=O)n2nc(N3CCN4CCCCC4C3)c3ccccc32)cc1 (racemic) [Example 7b, 3-[(6-R,S)-1,4-Diaza[4.4. 0]bicyclodecan-4-yl]-1-(4-methylphenylsulfonyl)indazole]",–,–,–,> 80
"Cc1cccc(-n2cc(C3CCN4CCCC4C3)c3cc(F)ccc32)c1 (racemic) [Example 9a, 5-Fluoro-3-[(7-R,S)(8a-R,S)-octahydro-7-indolizinyl]-1-(3-methylphenyl)indole]",–,–,–,> 80
"O=S(=O)(c1ccccc1)n1cc(C2=CCN3CCCC3C2)c2cc(OC3CCCCC3)ccc21 (racemic) [Example 10i, 5-Cyclohexyloxy-3-[(8a-R,S)-1,2,3,5,8,8a-hexahydrohydro-7-indolizinyl]-1-phenylsulfonylindole]",–,–,–,> 80
"Fc1ccc2c(c1)c(C1CCN3CCCC3C1)cn2Cc1ccccc1 (single isomer, unassigned; isomer i) [Example 10h, 1-Benzyl-5-fluoro-3-[(7R or 7S)(8a-R,S)-octahydrohydro-7-indolizinyl]indole, Isomer I]",–,–,–,> 80
"O=S(=O)(c1cc(Cl)ccc1Cl)n1cc(C2CCN3CCCC3C2)c2cc(F)ccc21 (single isomer, unassigned; isomer i) [Example 10j, 1-(2,5-Dichlorophenylsulfonyl)-5-Fluoro-3-[(7R or 7S)(8a-R,S)-octahydrohydro-7-indolizinyl]indole, Isomer I]",–,–,–,> 80
"Cc1cccc(S(=O)(=O)n2cc(C3CCN4CCCC4C3)c3cc(F)ccc32)c1 (single isomer, unassigned; isomer i) [Example 10k, 5-Fluoro-1-(3-methylphenylsulfonyl)-3-[(7R or 7S)(8a-R,S)octahydrohydro-7-indolizinyl]lindole, Isomer I]",–,–,–,> 80
